Assay results reported in patent US11078222B2, “Hydroxybenzoic acid derivatives, methods and uses thereof” (UNiVERSIDADE DO PORTO, priority 2016, dated 2021).

Assays:
[1] = system: mitochondrial permeability transition pore (mPTP); assay: Mitochondrial swelling / mitochondrial permeability transition pore opening; type: biochemical, rat; settings: 2.5, 5, 10 μM pre-incubated 5 min before Ca2+
Experimental: In an embodiment, and as an example, the effects of some AntiOxBENs on mitochondrial permeability transition pore (mPTP) opening were evaluated. In general, the tested AntiOxBENs had no effect per se on mPTP opening for all tested concentrations.
Increasing concentrations of AntiOxBENs (2.5-10 μM) were added to the reaction medium (200 mM sucrose, 1 mM KH2PO4, 10 mM Tris (pH 7.4), 5 mM succinate and 10 μM EGTA supplemented with 1.5 μM rotenone), in the presence of RLM (1 mg), and allowed to incubate for a 5 min period before the assay. The experiments were initiated by the addition of a suitable concentration of Ca^2+ (15-50 μM), titrated every day. […] The reaction was stirred continuously and the temperature maintained at 37° C.

[2] = Lipophilicity: transfer potential at ITIES (water/1,6-dichlorohexane) by DPV; type: physicochemical; settings: aqueous phase C=0.32 mM to 1,6-dichlorohexane, physiological pH
Experimental: In an embodiment, and as an example, the AntiOxBEN1 and AntiOxBEN2 lipophilic properties were evaluated using differential pulse voltammetry (DPV) at physiological pH. The used technique is often used to mimic the transfer of ionic drugs through biological membranes as the process occurs at the interface between two immiscible electrolyte solutions (ITIES). The transfer potential (Etr) at which the ionic drug, initially present in the aqueous phase (C=0.32 mM), is transferred to 1,6-dichlorohexane (DCH) phase is measured by differential pulse voltammetry (DPV). In the ITIES model, the transfer potential (Etr) becomes less positive with the increasing of the drug lipophilic character.
In an embodiment, the electrochemical analytical data was obtained using a computer controlled potentiostat Autolab PGSTAT302N (Metrohm Autolab, Utrecht, Netherlands). Generally, cyclic voltammetry (CV) data was acquired at a scan rate of 50 mVs^−1. Differential pulse voltammetry (DPV) results were acquired at a step potential of 4 mV, pulse amplitude of 50 mV and scan rate of 8 mVs^−1. The electrochemical signals were monitored by the General Purpose Electrochemical System (GPES) version 4.9, software package. […]

O=C(CCCCC[P+](c1ccccc1)(c1ccccc1)c1ccccc1)NCCCCCCNC(=O)c1cc(O)c(O)c(O)c1.[Br-] [AntiOxBEN3, [5-(6-(3,4,5-trihydroxybenzamido)hexylamino)carbonylpentyl]triphenylphosphonium bromide]
concentration-dependent inhibition of calcium-dependent mPTP opening [1]: caused a concentration-dependent inhibition

O=C(NCCCCCC[P+](c1ccccc1)(c1ccccc1)c1ccccc1)c1ccc(O)c(O)c1.[Br-] [AntiOxBEN1, 6-(3,4-dihydroxybenzamido)hexyltriphenylphosphonium bromide]
transfer potential (Etr) [2]: 0.405 V

O=C(NCCCCCC[P+](c1ccccc1)(c1ccccc1)c1ccccc1)c1cc(O)c(O)c(O)c1.[Br-] [AntiOxBEN2, 6-(3,4,5-trihydroxybenzamido)hexyltriphenylphosphonium bromide]
transfer potential (Etr) [2]: 0.495 V
